Drawing on patent US9499550B2 (BRISTOL-MYERS SQUIBB COMPANY, priority 2012, dated 2016), this text covers EC50 for twelve compounds.

Structures are written as SMILES. Where only a bound is given, the exact number is not on record here.

For test [1], the system named is HCV genotype 1b (Con1) replicon in HUH-7 cells. Description: HCV replicon luciferase reporter assay, genotype 1b. It counts as cell-based. As to conditions: Hepatitis C virus, Huh-7, 72 h, HCV genotype 1b replicon luciferase assay, 3 days incubation, range class, read-out: LE_1b (EC50, range). The essentials:
(§1)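 Replicon inhibition for both genotypes was measured as Renilla luciferase signal (EnduRen, 7.5 μM final, 2 h) after 3-day, 37° C exposure of replicon-bearing HUH-7 cells in 4% FCS DMEM, 0.5% DMSO. The 1b construct carries S1179I; the 1a H77 construct carries P1496L and S2204I. Twenty-point, 3-fold dilutions were fitted four-parametrically for EC50, and CC50 was taken from multiplexed Cell Titer-Blue.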

Test [2] has as its system HCV genotype 1a (H77 strain) replicon in HUH-7 cells. Description: HCV replicon luciferase reporter assay, genotype 1a. It counts as cell-based. As to conditions: Hepatitis C virus, Huh-7, 72 h, HCV genotype 1a replicon luciferase assay, 3 days incubation, range class, read-out: LE_1a (EC50, range). The essentials:
as §1
A general note: Replicon systems follow genome replication, usually without infectious particles.

Consider `COc1cnc(O[C@@H]2C[C@H]3C(=O)N[C@]4(C(=O)NS(=O)(=O)C5(CF)CC5)C[C@H]4/C=C\CC[C@@H](C)C[C@@H](C)[C@H](NC(=O)OC4(C)COC4)C(=O)N3C2)c2ccccc12` [Compound 1045, 3-methyloxetan-3-yl ((2R,6S,7R,9R,13aS,14aR,16aS,Z)-14a-(((1-(fluoromethyl)cyclopropyl)sulfonyl)carbamoyl)-2-((4-methoxyisoquinolin-1-yl)oxy)-7,9-dimethyl-5,16-dioxo-1,2,3,5,6,7,8,9,10,11,13a,14,14a,15,16,16a-hexadecahydrocyclopropa[e]pyrrolo[1,2-a][1,4]diazacyclopentadecin-6-yl)carbamate], for which the EC50 in test [1] and in test [2] was less than 5.46 nM throughout.
Consider `COc1cnc(O[C@@H]2C[C@H]3C(=O)N[C@]4(C(=O)NS(=O)(=O)C5(CF)CC5)C[C@H]4/C=C\CC[C@@H](C)C[C@@H](C)[C@H](NC(=O)OC4(C(F)(F)F)COC4)C(=O)N3C2)c2ccccc12` [Compound 1046, 3-(trifluoromethyl)oxetan-3-yl ((2R,6S,7R,9R,13aS,14aR,16aS,Z)-14a-(((1-(fluoromethyl)cyclopropyl)sulfonyl)carbamoyl)-2-((4-methoxyisoquinolin-1-yl)oxy)-7,9-dimethyl-5,16-dioxo-1,2,3,5,6,7,8,9,10,11,13a,14,14a,15,16,16a-hexadecahydrocyclopropa[e]pyrrolo[1,2-a][1,4]diazacyclopentadecin-6-yl)carbamate], for which the EC50 in test [1] and in test [2] was less than 5.46 nM each time.
In the case of `COc1cnc(O[C@@H]2C[C@H]3C(=O)N[C@]4(C(=O)NS(=O)(=O)C5(CF)CC5)C[C@H]4/C=C\CC[C@H](C)C[C@@H](C)[C@H](NC(=O)OC4(C(F)(F)F)CCOCC4)C(=O)N3C2)c2ccccc12` [Compound 1047, 4-(trifluoromethyl)tetrahydro-2H-pyran-4-yl((2R,6S,7R,9S,13aS,14aR,16aS,Z)-14a-(((1-(fluoromethyl)cyclopropyl)sulfonyl)carbamoyl)-2-((4-methoxyisoquinolin-1-yl)oxy)-7,9-dimethyl-5,16-dioxo-1,2,3,5,6,7,8,9,10,11,13a,14,14a,15,16,16a-hexadecahydrocyclopropa[e]pyrrolo[1,2-a][1,4]diazacyclopentadecin-6-yl)carbamate], the EC50 in test [1] and in test [2] was 4.82 to 103 nM in each case.
For the compound `COc1cnc(O[C@@H]2C[C@H]3C(=O)N[C@]4(C(=O)NS(=O)(=O)C5(CF)CC5)C[C@H]4/C=C\CC[C@@H](C)C[C@@H](C)[C@H](NC(=O)OC4(C(F)(F)F)CCOCC4)C(=O)N3C2)c2ccccc12` [Compound 1048, 4-(trifluoromethyl)tetrahydro-2H-pyran-4-yl((2R,6S,7R,9R,13aS,14aR,16aS,Z)-14a-(((1-(fluoromethyl)cyclopropyl)sulfonyl)carbamoyl)-2-((4-methoxyisoquinolin-1-yl)oxy)-7,9-dimethyl-5,16-dioxo-1,2,3,5,6,7,8,9,10,11,13a,14,14a,15,16,16a-hexadecahydrocyclopropa[e]pyrrolo[1,2-a][1,4]diazacyclopentadecin-6-yl)carbamate], the EC50 in test [1] and in test [2] was less than 5.46 nM each time.
On to `COCC(C)(C)OC(=O)N[C@@H]1C(=O)N2C[C@H](Oc3ncc(OC)c4ccccc34)C[C@H]2C(=O)N[C@]2(C(=O)NS(=O)(=O)C3(CF)CC3)C[C@H]2/C=C\CC[C@H](C)C[C@H]1C` [Compound 1049, 1-methoxy-2-methylpropan-2-yl((2R,6S,7R,9S,13aS,14aR,16aS,Z)-14a-(((1-(fluoromethyl)cyclopropyl)sulfonyl)carbamoyl)-2-((4-methoxyisoquinolin-1-yl)oxy)-7,9-dimethyl-5,16-dioxo-1,2,3,5,6,7,8,9,10,11,13a,14,14a,15,16,16a-hexadecahydrocyclopropa[e]pyrrolo[1,2-a][1,4]diazacyclopentadecin-6-yl)carbamate], for which the EC50 in test [1] and in test [2] was 4.82 to 103 nM each time.
With `COCC(C)(C)OC(=O)N[C@@H]1C(=O)N2C[C@H](Oc3ncc(OC)c4ccccc34)C[C@H]2C(=O)N[C@]2(C(=O)NS(=O)(=O)C3(CF)CC3)C[C@H]2/C=C\CC[C@@H](C)C[C@H]1C` [Compound 1050, 1-methoxy-2-methylpropan-2-yl((2R,6S,7R,9R,13aS,14aR,16aS,Z)-14a-(((1-(fluoromethyl)cyclopropyl)sulfonyl)carbamoyl)-2-((4-methoxyisoquinolin-1-yl)oxy)-7,9-dimethyl-5,16-dioxo-1,2,3,5,6,7,8,9,10,11,13a,14,14a,15,16,16a-hexadecahydrocyclopropa[e]pyrrolo[1,2-a][1,4]diazacyclopentadecin-6-yl)carbamate], the EC50 in test [1] and in test [2] was less than 5.46 nM in each case.
For the compound `COc1cnc(O[C@@H]2C[C@H]3C(=O)N[C@]4(C(=O)NS(=O)(=O)C5(CF)CC5)C[C@H]4/C=C\CC[C@H](C)C[C@@H](C)[C@H](NC(=O)OC4(C)CCOCC4)C(=O)N3C2)c2ccccc12` [Compound 1051, 4-methyltetrahydro-2H-pyran-4-yl((2R,6S,7R,9S,13aS,14aR,16aS,Z)-14a-(((1-(fluoromethyl)cyclopropyl)sulfonyl)carbamoyl)-2-((4-methoxyisoquinolin-1-yl)oxy)-7,9-dimethyl-5,16-dioxo-1,2,3,5,6,7,8,9,10,11,13a,14,14a,15,16,16a-hexadecahydrocyclopropa[e]pyrrolo[1,2-a][1,4]diazacyclopentadecin-6-yl)carbamate], the EC50 in test [1] and in test [2] was 4.82 to 103 nM throughout.
For `COc1cnc(O[C@@H]2C[C@H]3C(=O)N[C@]4(C(=O)NS(=O)(=O)C5(CF)CC5)C[C@H]4/C=C\CC[C@@H](C)C[C@@H](C)[C@H](NC(=O)OC4(C)CCOCC4)C(=O)N3C2)c2ccccc12` [Compound 1052, 4-methyltetrahydro-2H-pyran-4-yl((2R,6S,7R,9R,13aS,14aR,16aS,Z)-14a-(((1-(fluoromethyl)cyclopropyl)sulfonyl)carbamoyl)-2-((4-methoxyisoquinolin-1-yl)oxy)-7,9-dimethyl-5,16-dioxo-1,2,3,5,6,7,8,9,10,11,13a,14,14a,15,16,16a-hexadecahydrocyclopropa[e]pyrrolo[1,2-a][1,4]diazacyclopentadecin-6-yl)carbamate], the EC50 (in general, the midpoint of the concentration-response curve) in test [1] is less than 5.46 nM; in test [2], 4.82 to 103 nM.
Consider `COc1cnc(O[C@@H]2C[C@H]3C(=O)N[C@]4(C(=O)NS(=O)(=O)C5(CF)CC5)C[C@H]4/C=C\CC[C@H](C)C[C@@H](C)[C@H](NC(=O)OC4(C(C)C)COC4)C(=O)N3C2)c2ccccc12` [Compound 1053, 3-isopropyloxetan-3-yl ((2R,6S,7R,9S,13aS,14aR,16aS,Z)-14a-(((1-(fluoromethyl)cyclopropyl)sulfonyl)carbamoyl)-2-((4-methoxyisoquinolin-1-yl)oxy)-7,9-dimethyl-5,16-dioxo-1,2,3,5,6,7,8,9,10,11,13a,14,14a,15,16,16a-hexadecahydrocyclopropa[e]pyrrolo[1,2-a][1,4]diazacyclopentadecin-6-yl)carbamate], for which the EC50 in test [1] and in test [2] was 4.82 to 103 nM throughout.
Regarding `COc1cnc(O[C@@H]2C[C@H]3C(=O)N[C@]4(C(=O)NS(=O)(=O)C5(CF)CC5)C[C@H]4/C=C\CC[C@@H](C)C[C@@H](C)[C@H](NC(=O)OC4(C(C)C)COC4)C(=O)N3C2)c2ccccc12` [Compound 1054, 3-isopropyloxetan-3-yl ((2R,6S,7R,9R,13aS,14aR,16aS,Z)-14a-(((1-(fluoromethyl)cyclopropyl)sulfonyl)carbamoyl)-2-((4-methoxyisoquinolin-1-yl)oxy)-7,9-dimethyl-5,16-dioxo-1,2,3,5,6,7,8,9,10,11,13a,14,14a,15,16,16a-hexadecahydrocyclopropa[e]pyrrolo[1,2-a][1,4]diazacyclopentadecin-6-yl)carbamate], the EC50 in test [1] and in test [2] was less than 5.46 nM in each case.
As for `COc1cnc(O[C@@H]2C[C@H]3C(=O)N[C@]4(C(=O)NS(=O)(=O)C5(CF)CC5)C[C@H]4/C=C\CC[C@H](C)C[C@@H](C)[C@H](NC(=O)OC4(C)CCCOC4)C(=O)N3C2)c2ccccc12` (stereo partly drawn) [Compound 1055, 3-methyltetrahydro-2H-pyran-3-yl((2R,6S,7R,9S,13aS,14aR,16aS,Z)-14a-(((1-(fluoromethyl)cyclopropyl)sulfonyl)carbamoyl)-2-((4-methoxyisoquinolin-1-yl)oxy)-7,9-dimethyl-5,16-dioxo-1,2,3,5,6,7,8,9,10,11,13a,14,14a,15,16,16a-hexadecahydrocyclopropa[e]pyrrolo[1,2-a][1,4]diazacyclopentadecin-6-yl)carbamate], the EC50 in test [1] and in test [2] was less than 5.46 nM each time.
On to `COc1cnc(O[C@@H]2C[C@H]3C(=O)N[C@]4(C(=O)NS(=O)(=O)C5(CF)CC5)C[C@H]4/C=C\CC[C@@H](C)C[C@@H](C)[C@H](NC(=O)OC4(C)CCCOC4)C(=O)N3C2)c2ccccc12` (stereo partly drawn) [Compound 1056, 3-methyltetrahydro-2H-pyran-3-yl((2R,6S,7R,9R,13aS,14aR,16aS,Z)-14a-(((1-(fluoromethyl)cyclopropyl)sulfonyl)carbamoyl)-2-((4-methoxyisoquinolin-1-yl)oxy)-7,9-dimethyl-5,16-dioxo-1,2,3,5,6,7,8,9,10,11,13a,14,14a,15,16,16a-hexadecahydrocyclopropa[e]pyrrolo[1,2-a][1,4]diazacyclopentadecin-6-yl)carbamate], for which the EC50 in test [1] and in test [2] was less than 5.46 nM throughout.
